Data taken from US9434743B2, “Indazole derivatives” (TAKEDA PHARMACEUTICAL COMPANY LIMITED, priority 2012, dated 2016).

How the values were obtained:
human MetAP2 enzyme [1] = target: T1, human MetAP2 enzyme (Homo sapiens, UniProt P50579); assay: MetAP2 enzyme assay, enzyme complexed with cobalt ions; details: MetAP2 Co pIC50, MetAP2 enzyme complexed with cobalt ions; Met-AMC substrate at Km
human MetAP2 enzyme [2] = target: T1, human MetAP2 enzyme; assay: MetAP2 enzyme assay, enzyme complexed with manganese ions; details: MetAP2 Mn pIC50, MetAP2 enzyme complexed with manganese ions; Met-AMC substrate at Km
Experimental: DNA encoding the full-length sequence of human MetAP2 enzyme is amplified by PCR and cloned into a pFastBac expression vector (Invitrogen). Recombinant baculovirus incorporating the MetAP2 construct is generated by transposition using the Bac-to-Bac system (Invitrogen). The expression of recombinant protein is carried out by infection of Spodoptera frugiperda Sf9 cells (Invitrogen) in 5 L Wave Bioreactors (Wave Biotech). Recombinant protein is isolated from cellular extracts by binding to an SP Hitrap Fast Flow or SP Sepharose (Sigma) column, and the protein is eluted using a NaCl gradient. Partially purified extracts of MetAP2 are further purified by an AKTA FPLC over a Superdex-200 column (GE). The purity of MetAP2 protein is determined on denaturing SDS-PAGE gel.
The results for each well are expressed as percent inhibition and calculated using the equation:

T1 sequence (P50579 whole entry): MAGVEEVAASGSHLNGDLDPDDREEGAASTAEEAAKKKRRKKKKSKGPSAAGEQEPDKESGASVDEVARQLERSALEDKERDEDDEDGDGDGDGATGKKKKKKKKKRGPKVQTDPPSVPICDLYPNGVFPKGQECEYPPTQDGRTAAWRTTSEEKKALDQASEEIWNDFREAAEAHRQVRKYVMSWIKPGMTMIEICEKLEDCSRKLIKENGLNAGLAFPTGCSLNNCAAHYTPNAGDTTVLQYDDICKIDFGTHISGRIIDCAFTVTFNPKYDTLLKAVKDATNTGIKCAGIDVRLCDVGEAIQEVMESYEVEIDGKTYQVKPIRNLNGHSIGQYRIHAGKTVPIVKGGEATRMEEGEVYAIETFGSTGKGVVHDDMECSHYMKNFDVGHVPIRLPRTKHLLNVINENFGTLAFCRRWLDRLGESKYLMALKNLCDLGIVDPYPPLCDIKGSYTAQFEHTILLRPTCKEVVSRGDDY

SMILES	IC50 (human MetAP2 enzyme [1]) [nM]	IC50 (human MetAP2 enzyme [2]) [nM]
NS(=O)(=O)c1cccc(-c2cc(C(F)(F)F)cc3[nH]ncc23)c1 [Example 329, 3-(6-(trifluoromethyl)-1H-indazol-4-yl)benzenesulfonamide]	39.8	15.8
Cc1nn(CC(=O)N2CCOCC2)c(C)c1-c1cc(C(F)(F)F)cc2[nH]ncc12 [Example 317, 2-(3,5-dimethyl-4-(6-(trifluoromethyl)-1H-indazol-4-yl)-1H-pyrazol-1-yl)-1-morpholinoethanone]	63.1	20
FC(F)(F)c1cc(-c2cnn(Cc3cccnc3)c2)c2cn[nH]c2c1 [Example 96, 4-(1-(pyridin-3-ylmethyl)-1H-pyrazol-4-yl)-6-(trifluoromethyl)-1H-indazole]	39.8	5.01
O=C(O)c1ncncc1-c1cc(C(F)(F)F)cc2[nH]ncc12 [Example 192, 5-(6-(trifluoromethyl)-1H-indazol-4-yl)pyrimidine-4-carboxylic acid]	5010	100
O=c1[nH]cnc2[nH]nc(-c3cc(C(F)(F)F)cc4[nH]ncc34)c12 [Example 156, 3-(6-(trifluoromethyl)-1H-indazol-4-yl)-1H-pyrazolo[3,4-d]pyrimidin-4(5H)-one]	501	31.6
COc1nc(C(=O)NCCO)ccc1-c1cc(C(F)(F)F)cc2[nH]ncc12 [Example 394, N-(2-hydroxyethyl)-6-methoxy-5-(6-(trifluoromethyl)-1H-indazol-4-yl)picolinamide]	31.6	5.01
O=C1Cc2c(cccc2-c2cc(C(F)(F)F)cc3[nH]ncc23)N1 [Example 129, 4-(6-(trifluoromethyl)-1H-indazol-4-yl)indolin-2-one]	10	3.98
FC(F)(F)c1cc(-c2ccncc2Cl)c2cn[nH]c2c1 [Example 49, 4-(3-chloropyridin-4-yl)-6-(trifluoromethyl)-1H-indazole]	200	15.8
C[C@H](O)CNC(=O)c1cc(-c2cc(C(F)(F)F)cc3[nH]ncc23)c(=O)n(C)c1 [Example 359, (S)—N-(2-hydroxypropyl)-1-methyl-6-oxo-5-(6-(trifluoromethyl)-1H-indazol-4-yl)-1,6-dihydropyridine-3-carboxamide]	501	10
Cc1cnc(-c2cc(C(F)(F)F)cc3[nH]ncc23)n1C [Example 162, 4-(1,5-dimethyl-1H-imidazol-2-yl)-6-(trifluoromethyl)-1H-indazole]	316	6.31

Now from value to molecule:

IC50 (human MetAP2 enzyme [1]) [nM]	IC50 (human MetAP2 enzyme [2]) [nM]	SMILES
100	6.31	OCCn1cc(-c2cc(C(F)(F)F)cc3[nH]ncc23)cn1 [Example 349, 2-(4-(6-(trifluoromethyl)-1H-indazol-4-yl)-1H-pyrazol-1-yl)ethanol]
200	15.8	FC(F)(F)c1cc(-c2cccc3cccnc23)c2cn[nH]c2c1 [Example 31, 8-(6-(trifluoromethyl)-1H-indazol-4-yl)quinoline]
63.1	5.01	Cc1nn(CC(=O)N2CCOCC2)cc1-c1cc(C(F)(F)F)cc2[nH]ncc12 [Example 277, 2-(3-methyl-4-(6-(trifluoromethyl)-1H-indazol-4-yl)-1H-pyrazol-1-yl)-1-morpholinoethanone]
31.6	5.01	Nc1ccc(-c2cc(C(F)(F)F)cc3[nH]ncc23)cn1 [Example 16, 5-(6-(trifluoromethyl)-1H-indazol-4-yl)pyridin-2-amine]
316	6.31	Cn1cc(C(=O)NCC(O)CO)cc(-c2cc(C(F)(F)F)cc3[nH]ncc23)c1=O (centres unmarked) [Example 356, N-(2,3-dihydroxypropyl)-1-methyl-6-oxo-5-(6-(trifluoromethyl)-1H-indazol-4-yl)-1,6-dihydropyridine-3-carboxamide]
39.8	20	Cc1n[nH]c(C)c1-c1cc(C(F)(F)F)cc2[nH]ncc12 [Example 83, 4-(3,5-dimethyl-1H-pyrazol-4-yl)-6-(trifluoromethyl)-1H-indazole]
